The text below walks through data of paper PMC12383815 (Biomolecules, 2025).

Where a name gives a salt, the structure may show the parent alone.

For orientation: inhibition means the change of the read-out against control, counted positive when it falls. A lower inhibition goes with a response near the control. By IC50 is commonly meant the point on the concentration scale where inhibition reaches its midpoint.

The target in the first experiment is T1, shikimate dehydrogenase (SaSDH) (Staphylococcus aureus, UniProt Q6GGA5).
T1 construct: gene aroE
T1 sequence (Q6GGA5 1-268): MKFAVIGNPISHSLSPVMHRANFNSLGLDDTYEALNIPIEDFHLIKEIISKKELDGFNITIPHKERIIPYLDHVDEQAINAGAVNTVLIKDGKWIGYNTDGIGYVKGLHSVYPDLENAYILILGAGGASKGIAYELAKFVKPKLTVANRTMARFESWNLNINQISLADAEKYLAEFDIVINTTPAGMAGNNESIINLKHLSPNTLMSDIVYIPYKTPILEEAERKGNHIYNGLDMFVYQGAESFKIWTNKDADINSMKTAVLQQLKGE
As to the kind of experiment: biochemical. On the set-up: SaSDH enzyme activity inhibition screening at 500 uM, 10% DMSO.
Conditions: not given
On the procedure:
The inhibition percentage was determined by measuring enzyme activity under the conditions previously described by adding each compound from an in-house natural product derivative chemical library (40 compounds) to the reaction mixture at quantities of 500 μM; these compounds had been previously dissolved in Dimethyl Sulfoxide (DMSO), keeping 10% DMSO as final concentration. The percentage inhibition was calculated by adjusting the data from the following equation [33]: Inhibition %=A0−A1/A0 ×100 where the following definitions are used: In the search for new SaSDH inhibitors, an in-house chemical library of 40 natural product derivatives was screened against SaSDH activity. Our findings indicate that among the 40 molecules evaluated, the compounds phloridzin (93% of inhibition), rutin (87% of inhibition), and caffeic acid (70% of inhibition) inhibited SaSDH using a 500 µM concentration.
Regarding `Cn1ccnc1S(=O)(=O)Cl` [1-Methylimidazole-2-sulfonyl chloride], the inhibition at 500 µM came out at 13%. On the same count and under the same terms, for `O=Cc1c[nH]c2c1ccc1ccccc12` [1H-Benzo[g]indole-3-carboxaldehyde] the value was 19%. Still for that read-out and setting: to `Clc1ccnc(Cl)c1` [2,4-Dichloropyridine] belongs 19%; to `Nc1nc(-c2ccc3c(c2)CCCC3)cs1` [2-Amino-4-(5,6,7,8-tetrahydronaphthalen-2-yl)thiazole], 8%; to `Nc1ccc(Br)cn1` [2-Amino-5-bromopyridine], 8%.

For `N#Cc1cnc(N)s1` [2-Aminothiazole-5-carbonitrile], the inhibition at 500 µM was found to be 17%. Still for that read-out and setting: for `Brc1nc2ccccc2[nH]1` [2-Bromo-1H-benzimidazole] the value was 10%; for `Fc1ccc(Cl)nc1` [2-Chloro-5-fluoropyridine], 18%; for `O=C1CNCCN1` [2-Oxopiperazine], 13%. `C1SCC2OC12` (centres unmarked) [3,4-Epoxy-tetrahydrothiophene] gave an inhibition at 500 µM of 9%. The same measure, in the same setting: for `COc1cccc(C(=O)O)c1` [3-Methoxybenzoic acid] the value was 2%; for `Cc1ncc(CO)c(C)c1O` [4-Deoxypyridoxine hydrochloride], 12%. `FC(F)(F)c1ccc(Br)cn1` [5-Bromo-2-(trifluoromethyl)pyridine]: 500 µM produced 9% inhibition. Still for that read-out and setting: for `O=c1[nH]cc(Br)cc1[N+](=O)[O-]` [5-Bromo-2-hydroxy-3-nitropyridine] the value was 18%; for `O=C(Cl)c1nc2ccccc2s1` [Benzothiazole-2-carbonyl chloride], 14%; for `COC(=O)c1nc[nH]c1C(=O)OC` [Dimethyl imidazole-4,5-dicarboxylate], 18%. Still for that read-out and setting: for `COc1ccc(-c2coc3cc(O)ccc3c2=O)cc1` [Formononetin] the value was 13%; for `O=C1O[C@H]([C@@H](O)CO)C(O)=C1O` [L-Ascorbic acid], 4.5%; for `CC(C)=CCC1=C(O)C(=O)c2ccccc2C1=O` [Lapachol], 6%. Still for that read-out and setting: for `COc1cc(C(=O)OCCCCNC(=N)N)cc(OC)c1O` [Leonurine] the value was 13%; for `CC1=CC(=O)c2ccccc2C1=O` [Menadione], 17%; for `COC(=O)c1ccc(OC)cc1O` [Methyl 4-methoxysalicylate], 10%. Regarding `NC(=O)c1cccnc1` [Nicotinamide], 500 µM produced 5% inhibition. On the same count and under the same terms, for `O=C(O)c1cccnc1` [Nicotinic acid] the value was 20%; for `Cc1ncc(CO)c(CO)c1O` [Pyridoxine], 28%.

`OC[C@H]1O[C@@H](OCCc2ccc(O)cc2)[C@H](O)[C@@H](O)[C@@H]1O` [Salidroside] returned an inhibition at 500 µM of 27%.

The next experiment deals with T2, shikimate dehydrogenase (SaSDH) (Staphylococcus aureus, UniProt Q6GGA5).
T2 construct: gene aroE
The experiment can be described thus: recombinant enzyme activity, NADPH formation at […] nm, dose-response; progress-curve kinetics. Type of experiment: biochemical.
Conditions: not given
As to `O=C(O)/C=C/c1ccc(O)c(O)c1` [Caffeic acid], the IC50 was 240 µM. With `O=C(CCc1ccc(O)cc1)c1c(O)cc(O)cc1O[C@@H]1O[C@H](CO)[C@@H](O)[C@H](O)[C@H]1O` [Phloridzin], the half-inhibitory concentration (IC50) worked out at 140 µM.

Still in this experiment, the particulars now being: read-out: IC50.
As to `C[C@@H]1O[C@@H](OC[C@H]2O[C@@H](Oc3c(-c4ccc(O)c(O)c4)oc4cc(O)cc(O)c4c3=O)[C@H](O)[C@@H](O)[C@@H]2O)[C@H](O)[C@H](O)[C@H]1O` [Rutin], the IC50 amounted to 165 µM.
